Assay results as given in patent US8716303B2, “N-(hetero)aryl-pyrrolidine derivatives of pyrazol-4-yl-pyrrolo[2,3-d]pyrimidines and pyrrol-3-yl-pyrrolo[2,3-d]pyrimidines as janus kinase inhibitors” (Incyte Corporation, priority 2009, dated 2014).
Where a name gives a salt, the structure may show the parent alone.

Columns and labels:
Jak2 (a.a. 828-1132) = molecular target: T1, Jak2 (a.a. 828-1132) (Homo sapiens, UniProt O60674); assay: In vitro JAK kinase assay (HTRF, phosphorylation of a biotinylated peptide), JAK2, reported as JAK2/JAK1 ratio; assay type: biochemical; details: Assay Conditions 1 mM ATP
T1 construct: Jak2 (a.a. 828-1132); His tag (N); made in house; host or cells: insect cells (baculovirus)
T1 sequence (O60674 828-1132): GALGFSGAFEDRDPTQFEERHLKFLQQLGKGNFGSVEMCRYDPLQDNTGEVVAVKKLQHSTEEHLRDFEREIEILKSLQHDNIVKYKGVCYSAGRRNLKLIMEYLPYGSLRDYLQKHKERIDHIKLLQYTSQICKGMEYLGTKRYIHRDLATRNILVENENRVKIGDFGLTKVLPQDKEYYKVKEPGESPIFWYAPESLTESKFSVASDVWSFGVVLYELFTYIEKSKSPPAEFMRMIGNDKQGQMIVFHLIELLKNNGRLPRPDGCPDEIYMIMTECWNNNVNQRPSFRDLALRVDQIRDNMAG

[1] = molecular target: T2, human JAK1 (a.a. 837-1142) (Homo sapiens, UniProt P23458); assay: In vitro JAK kinase assay (HTRF, phosphorylation of a biotinylated peptide), JAK1; assay type: biochemical; details: Assay Conditions 1 mM ATP
T2 construct: human JAK1 (a.a. 837-1142); His tag (N); made in house; host or cells: insect cells (baculovirus)
T2 sequence (P23458 849-1154): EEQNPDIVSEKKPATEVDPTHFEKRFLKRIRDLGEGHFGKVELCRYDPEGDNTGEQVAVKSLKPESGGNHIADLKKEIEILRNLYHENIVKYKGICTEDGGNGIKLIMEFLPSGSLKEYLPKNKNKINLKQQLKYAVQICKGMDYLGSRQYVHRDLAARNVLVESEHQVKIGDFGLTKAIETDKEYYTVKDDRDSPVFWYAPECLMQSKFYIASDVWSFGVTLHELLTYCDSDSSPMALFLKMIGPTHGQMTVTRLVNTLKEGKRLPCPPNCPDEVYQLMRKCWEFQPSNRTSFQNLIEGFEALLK
Method in brief: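 IC50s come from HTRF detection (Eu-Py20, SA-APC, 40 min binding) after 1 h RT reactions with 500 nM biotinylated peptide in Tris pH 7.8 buffer. ATP either 1 mM or Km-level, 90 μM for JAK1 and 30 μM for JAK2; enzymes are baculovirus-expressed His-tagged catalytic domains (JAK1 837-1142, JAK2 828-1132).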

Row | Structure (SMILES) | JAK2/JAK1 IC50 ratio (Jak2 (a.a. 828-1132)) | IC50 [1]
1 | CS(=O)(=O)c1ccc(F)c(N2CC[C@H]([C@H](CC#N)n3cc(-c4ncnc5[nH]ccc45)cn3)C2)n1 [Example 133, (3S)-3-{(3S)-1-[3-fluoro-6-(methylsulfonyl)pyridin-2-yl]pyrrolidin-3-yl}-3-[4-(7H-pyrrolo [2,3-d]pyrimidin-4-yl)-1H-pyrazol-1-yl] propanenitrile trifluoroacetate] | 3 | 50 to 100 nM
2 | COCc1cnc(N2CC[C@H]([C@H](CC#N)n3cc(-c4ncnc5[nH]ccc45)cn3)C2)c(C#N)n1 [Example 141, 3-((3S)-3-{(1S)-2-cyano-1-[4-(7H-pyrrolo[2,3-d]pyrimidin-4-yl)-1H-pyrazol-1-yl]ethyl}pyrrolidin-1-yl)-6-(methoxymethyl)pyrazine-2-carbonitrile trifluoroacetate] | 16.2 | < 50 nM
3 | N#CC[C@@H]([C@H]1CCN(c2ncc(Br)nc2C#N)C1)n1cc(-c2ncnc3[nH]ccc23)cn1 [Example 142, 6-bromo-3-(3S)-3-{(1S)-2-cyano-1-[4-(7H-pyrrolo[2,3-d]pyrimidin-4-yl)-1H-pyrazol-1-yl]ethyl}pyrrolidin-1-yl)pyrazine-2-carbonitrile trifluoroacetate] | 14.2 | < 50 nM
4 | C#Cc1cnc(N2CC[C@H]([C@H](CC#N)n3cc(-c4ncnc5[nH]ccc45)cn3)C2)c(C#N)n1 [Example 143, 3-((3S)-3-{(1S)-2-cyano-1-[4-(7H-pyrrolo[2,3-d]pyrimidin-4-yl)-1H-pyrazol-1-yl]ethyl}pyrrolidin-1-yl)-6-ethynylpyrazine-2-carbonitrile trifluoroacetate] | >4.5 | < 50 nM
5 | CCc1cnc(N2CC[C@H]([C@H](CC#N)n3cc(-c4ncnc5[nH]ccc45)cn3)C2)c(C#N)n1 [Example 144, 3-((3S)-3-{(1S)-2-cyano-1-[4-(7H-pyrrolo[2,3-d]pyrimidin-4-yl)-1H-pyrazol-1-yl]ethyl}pyrrolidin-1-yl)-6-ethylpyrazine-2-carbonitrile trifluoroacetate] | >6.9 | < 50 nM
6 | Cc1cnc(N2CC[C@H]([C@H](CC#N)n3cc(-c4ncnc5[nH]ccc45)cn3)C2)c(C#N)n1 [Example 145, 3-((3S)-3-{(1S)-2-cyano-1-[4-(7H-pyrrolo[2,3-d]pyrimidin-4-yl)-1H-pyrazol-1-yl]ethyl}pyrrolidin-1-yl)-6-methylpyrazine-2-carbonitrile trifluoroacetate] | >11.1 | < 50 nM
7 | CC(O)c1cnc(N2CC[C@H]([C@H](CC#N)n3cc(-c4ncnc5[nH]ccc45)cn3)C2)c(C#N)n1 (stereo partly drawn) [Example 146, 3-((3S)-3-{(1S)-2-cyano-1-[4-(7H-pyrrolo[2,3-d]pyrimidin-4-yl)-1H-pyrazol-1-yl]ethyl}pyrrolidin-1-yl)-6-(1-hydroxyethyl)pyrazine-2-carbonitrile trifluoroacetate] | >4.8 | < 50 nM

More lines, now with the values ahead:

Row | JAK2/JAK1 IC50 ratio (Jak2 (a.a. 828-1132)) | IC50 [1] | Structure (SMILES)
8 | 5.9 | < 50 nM | CSc1nc(N2CC[C@H]([C@H](CC#N)n3cc(-c4ncnc5[nH]ccc45)cn3)C2)c(F)cc1F [Example 129, (3S)-3-{(3S)-1-[3,5-Difluoro-6-(methylthio)pyridin-2-yl]pyrrolidin-3-yl}-3-[4-(7H-pyrrolo[2,3-d]pyrimidin-4-yl)-1H-pyrazol-1-yl]propanenitrile]
9 | 14.8 | < 50 nM | CS(=O)(=O)c1nc(N2CC[C@H]([C@H](CC#N)n3cc(-c4ncnc5[nH]ccc45)cn3)C2)c(F)cc1F [Example 130, (3S)-3-{(3S)-1-[3,5-difluoro-6-(methylsulfonyl)pyridin-2-yl]pyrrolidin-3-yl}-3-[4-(7H-pyrrolo[2,3-d]pyrimidin-4-yl)-1H-pyrazol-1-yl]propanenitrile trifluoroacetate]
10 | 8.1 | < 50 nM | N#CC[C@@H]([C@H]1CCN(c2nc(S(=O)(=O)CC(F)(F)F)c(F)cc2F)C1)n1cc(-c2ncnc3[nH]ccc23)cn1 [Example 131, (3S)-3-((3S)-1-{3,5-difluoro-6-[(2,2,2-trifluoroethyl)-sulfonyl]pyridin-2-yl}pyrrolidin-3-yl)-3-[4-(7H-pyrrolo[2,3-d]pyrimidin-4-yl)-1H-pyrazol-1-yl]propanenitrile trifluoroacetate]
11 | 8.9 | < 50 nM | CS(=O)(=O)c1nc(N2CC[C@H](C(CF)n3cc(-c4ncnc5[nH]ccc45)cn3)C2)c(F)cc1F (stereo partly drawn) [Example 132, 4-[1-(1-{(3S)-1-[3,5-difluoro-6-(methylsulfonyl)pyridin-2-yl]pyrrolidin-3-yl}-2-fluoroethyl)-1H-pyrazol-4-yl]-7H-pyrrolo [2,3-d]pyrimidine trifluoroacetate]
12 | 17 | < 50 nM | CS(=O)(=O)c1nc(F)c(N2CC[C@H]([C@H](CC#N)n3cc(-c4ncnc5[nH]ccc45)cn3)C2)cc1F [Example 134, (3S)-3-{(3S)-1-[2,5-difluoro-6-(methylsulfonyl)pyridin-3-yl]pyrrolidin-3-yl}-3-[4-(7H-pyrrolo[2,3-d]pyrimidin-4-yl)-1H-pyrazol-1-yl]propanenitrile trifluoroacetate]
13 | >5 | < 50 nM | CC(F)c1ccnc(N2CC[C@H]([C@H](CC#N)n3cc(-c4ncnc5[nH]ccc45)cn3)C2)c1C#N (stereo partly drawn) [Example 136, 2-((3S)-3-{(1S)-2-cyano-1-[4-(7H-pyrrolo[2,3-d]pyrimidin-4-yl)-1H-pyrazol-1-yl]ethyl}pyrrolidin-1-yl)-4-(1-fluoroethyl)nicotinonitrile trifluoroacetate]
14 | 17.5 | < 50 nM | N#CC[C@@H]([C@H]1CCN(c2ncc(C(F)F)nc2C#N)C1)n1cc(-c2ncnc3[nH]ccc23)cn1 [Example 138, 3-((3S)-3-{(1S)-2-cyano-1-[4-(7H-pyrrolo[2,3-d]pyrimidin-4-yl)-1H-pyrazol-1-yl]ethyl}pyrrolidin-1-yl)-6-(difluoromethyl)pyrazine-2-carbonitrile trifluoroacetate]
15 | 17.4 | < 50 nM | N#CC[C@@H]([C@H]1CCN(c2ncc(CO)nc2C#N)C1)n1cc(-c2ncnc3[nH]ccc23)cn1 [Example 140, 3-((3S)-3-{(1S)-2-cyano-1-[4-(7H-pyrrolo[2,3-d]pyrimidin-4-yl)-1H-pyrazol-1-yl]ethyl}pyrrolidin-1-yl)-6-(hydroxymethyl)pyrazine-2-carbonitrile trifluoroacetate]
